Reference: publication PMC7876453, “Targeting Indoleamine 2,3-Dioxygenase in Cancer Models Using the Novel Small Molecule Inhibitor NTRC 3883-0” (Frontiers in Immunology, 2021)

Tests used:
[1] = molecular target: T1, human IDO1 (Homo sapiens, UniProt P14902); experiment: human IDO1 biochemical assay (NFK GreenScreen)
T1 construct: Full-length recombinant human and mouse IDO1 were expressed in Escherichia coli with a hexahistidine tag at the N-terminus; hexahistidine (N); made in house; host or cells: Escherichia coli
T1 sequence (P14902 whole entry): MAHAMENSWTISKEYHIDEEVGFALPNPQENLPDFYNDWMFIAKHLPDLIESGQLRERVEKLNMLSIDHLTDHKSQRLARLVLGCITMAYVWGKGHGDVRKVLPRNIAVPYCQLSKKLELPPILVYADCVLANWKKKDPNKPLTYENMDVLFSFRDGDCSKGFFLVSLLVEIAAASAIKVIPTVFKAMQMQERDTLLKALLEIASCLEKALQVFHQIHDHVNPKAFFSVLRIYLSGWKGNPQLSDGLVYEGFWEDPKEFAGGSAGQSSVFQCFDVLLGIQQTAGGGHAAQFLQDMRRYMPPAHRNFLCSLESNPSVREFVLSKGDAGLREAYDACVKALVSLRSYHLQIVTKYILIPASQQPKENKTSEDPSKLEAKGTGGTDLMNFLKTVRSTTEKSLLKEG

[2] = molecular target: T2, A375 + IFNγ (hIDO1) (Homo sapiens, UniProt P14902); experiment: cell-based assay, Trp-catabolizing activity in IFNγ-stimulated A375 cells; conditions: IFNγ-stimulated A375 human melanoma cells
T2 construct: host or cells: A375 cells stimulated with IFNγ
T2 sequence (P14902 whole entry): as above

[3] = system: IDO1; parameters: method as in doi:10.1200/JCO.2019.37.7_suppl.358; conditions: once-daily oral dosing; cited from earlier work
[4] = system: CT26 cells implanted subcutaneously into female BALB/c mice; experiment: CT26 mouse model, first study (ProQinase); assay type: in vivo; conditions: 50 mg/kg NTRC 3748-0 b.i.d., 100 mg/kg epacadostat q.d.
Procedure: For the first CT26 mouse model study, performed at ProQinase, 5 × 10^5 CT26 cells were implanted subcutaneously into female BALB/c mice on day 0. […] Tumor growth was monitored using caliper measurement 2 times weekly. The study was terminated at day 22 based on the tumor burden. Tumors and plasma were sampled 2 h post last dose.
Tissues were homogenized in PBS at a ratio of 1 mg per 10 μl using micro pellet pestles mounted on a Micro-Tube Homogenizer System (Thomas Scientific). After centrifugation, proteins were removed from the homogenized tissue supernatants and plasma samples by precipitation with methanol. The concentrations of inhibitor, Trp and Kyn were determined by LC-MS/MS.

[5] = molecular target: T3, human TDO (Homo sapiens, UniProt P48775); experiment: human TDO biochemical assay (NFK GreenScreen); conditions: biochemical; highest tested concentration 31.6 µM
T3 construct: hexahistidine (C); made in house; host or cells: Escherichia coli
T3 sequence (P48775 whole entry): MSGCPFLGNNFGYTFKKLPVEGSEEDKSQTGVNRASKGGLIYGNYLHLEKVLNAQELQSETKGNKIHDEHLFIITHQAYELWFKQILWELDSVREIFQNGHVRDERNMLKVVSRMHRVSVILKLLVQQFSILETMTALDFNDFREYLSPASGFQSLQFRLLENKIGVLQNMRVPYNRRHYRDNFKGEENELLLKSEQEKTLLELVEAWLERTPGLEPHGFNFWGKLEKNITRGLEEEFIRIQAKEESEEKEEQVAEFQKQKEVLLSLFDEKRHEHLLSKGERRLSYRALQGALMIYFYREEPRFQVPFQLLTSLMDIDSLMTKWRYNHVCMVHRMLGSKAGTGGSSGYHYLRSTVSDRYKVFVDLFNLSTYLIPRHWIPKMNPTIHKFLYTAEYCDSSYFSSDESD
Procedure: Full-length recombinant human and mouse IDO1 were expressed in Escherichia coli with a hexahistidine tag at the N-terminus, and purified by affinity chromatography to > 95% purity, as described ([8]). Human and mouse TDO containing a C-terminal hexahistidine tag were analogously expressed and purified to > 95% purity ([8]). The inhibitory activity of compounds was determined with the NFK GreenScreen assay technology under the conditions as described ([8]), except for the reaction buffer for IDO1, which was replaced by 50 mM NaH2PO4, pH 7.0, supplemented with 0.01% Tween-20 and 1% glycerol. Inhibition of the CYP3A4 and CYP2D6 enzymes was determined with the P450-Glo™ Screening System with Luciferin-IPA (Promega, #V9920 and V9890). For determination of IC50 values, the effect of inhibitors was determined in 10-point duplicate dose-response curves. Graphs were fitted to a four-parameter logistics equation in XLfit (ID Business Solutions, Ltd., Guildford, UK) from which IC50 values were calculated.

| IC50 ([1]; human IDO1 biochemical assay) [µM] | IC50 [2] [µM] | Compound | further results |
| --- | --- | --- | --- |
| 2.17 | 11 | O=C1CN(C(=O)c2ccc(F)cc2)C(c2cccc(Br)c2)N1O (stereo not shown) [Compound 3a] |  |
| 2.46 | 5.29 | O=C1CN(C(=O)c2ccccc2)C(c2cccc(C(F)(F)F)c2)N1O (stereo not shown) [Compound 2g] |  |
| 0.6 | 2.83 | O=C1CN(C(=O)c2cc(F)ccc2F)C(c2cccc(Br)c2)N1O (stereo not shown) [Compound 3h] |  |
| 0.582 | 2.14 | O=C1CN(C(=O)c2ccc(F)cc2F)C(c2cccc(Br)c2)N1O (stereo not shown) [Compound 3i] |  |
|  |  | C[C@@H](C(=O)Nc1ccc(Cl)cc1)[C@H]1CC[C@@H](c2ccnc3ccc(F)cc32)CC1 [Linrodostat, linrodostat] | safety and target coverage [3]: safety and good target coverage |
| 0.198 | 0.589 | O=C1CN(C(=O)c2c(F)cccc2F)C(c2cccc(Br)c2)N1O (stereo not shown) [Compound 3j] | Kyn levels in the tumor ([4]; LC-MS/MS, 2 h post last dose): considerable reduction of Kyn levels; tumor growth ([4]; p.o. from day 8): inhibition of tumor growth |
| 17.9 | > 31.6 | N#Cc1cccc(C2N(O)C(=O)CN2C(=O)c2ccccc2)c1 (stereo not shown) [Compound 2f] |  |
| 1.22 | 4.52 | O=C1CN(C(=O)c2ccccc2)C(c2cccc(Br)c2)N1O (stereo not shown) [Compound 1] | IC50 ([1]; biochemical): 1.2 µM; activity on human TDO (in words) [5]: inactive |
| 2.38 | 5.22 | O=C1CN(C(=O)c2ccccc2)C(c2cccc(Cl)c2)N1O (stereo not shown) [Compound 2b] |  |
| > 31.6 | > 31.6 | O=C1CN(C(=O)c2ccccc2)C(c2ccc(Br)cc2)N1O (stereo not shown) [Compound 2d] |  |
| > 31.6 | > 31.6 | COc1ccccc1C(=O)N1CC(=O)N(O)C1c1cccc(Br)c1 (stereo not shown) [Compound 3e] |  |
